From patent US9822164B2, “Labelling agent, and composition for labelling a protein, method for labelling a protein, and method for detecting a protein” (KOREA INSTITUTE OF SCIENCE AND TECHNOLOGY, priority 2014, dated 2017)

Columns and labels:
[1] = Maximum values of absorbance and fluorescence of the compounds in DMSO; type: physicochemical
Procedure: Experimental device, analyzer and reagents used in Examples and comparative experiments are the same as follows. FT-NMR spectroscopy is performed using Bruker Avance 400, and LC/MS analysis is performed using Thermo Dionex ultimate 3000/Velos pro on ion-trap mass spectrometer (ITMS). All reagents purchased from Aldrich are used without additional purification. Whatman filter papers having a diameter of 125 mm are used. Of derivatives used in experiments, 2-(2-Aminophenyl)-1H-benzimidazole) (ABI) is purchased from Aldrich, and NMR analysis and fluorescence/absorbance values are recorded by the method known in the art. […]

HSA = biological target: T1, HSA (Homo sapiens, UniProt P02768); experiment: Labelling (photocrosslinking) of protein by UV irradiation, gel electrophoresis, fluorescence intensity; type: binding; settings: 5 minutes after UV irradiation, about 254 nm; FIG. 1b
T1 construct: purchased Sigma Aldrich
Procedure: (§1) Proteins of BSA, HSA, peroxidase, and lysozyme are treated with the compounds synthesized or purchased in Example 1, and irradiated with UV at about 254 nm. Then, binding of the compound and the protein over UV irradiation time is examined by gel electrophoresis. A gel electrophoresis apparatus (Bio-Rad) and a small vertical gel electrophoresis apparatus are connected and used for gel electrophoresis. For experiment, a 12% SDS gel and a running buffer are directly prepared as follows and used. 12% SDS gel is prepared by mixing 7.9 ml of H2O, 6.5 ml of pH […] Tris-HCl buffer, 10 ml of 30% Acryl amide, 250 μl of 10% SDS gel, 250 μl of APS, and 10 μl of TMEDE. 1× running buffer is prepared by mixing 200 ml of 10×TGS buffer and 1800 ml of H2O.
(§2) Proteins of BSA, HAS, peroxidase, and lysozyme are purchased from Sigma Aldrich. Fluorescence intensity of the labeled protein is measured using BIO-RAD ChemiDoc, and Blue Epi and Green Epi are used as a light source, and 530 nm emission (28 nm bandwidth) and 650 nm emission (50 nm bandwidth) filters are used according to fluorescence wavelength.
(§3) Y axis of FIGS. 1a through 1d represents fluorescence intensity, indicating photocrosslinking degree of the compound and protein.

peroxidase = experiment: as above; type: binding; settings: 5 minutes after UV irradiation, about 254 nm; FIG. 1c
Procedure: as §1, §2, §3

BSA = biological target: T2, BSA (Bos taurus, UniProt P02769); experiment: as above; type: binding; settings: 5 minutes after UV irradiation, about 254 nm; FIG. 1a
T2 construct: purchased Sigma Aldrich
Procedure: as §1, §2, §3

lysozyme = biological target: T3, lysozyme (Gallus gallus, UniProt P00698); experiment: as above; type: binding; settings: 5 minutes after UV irradiation, about 254 nm; FIG. 1d
T3 construct: purchased Sigma Aldrich
Procedure: as §1, §2, §3

[2] = system: BSA, HSA, peroxidase, and lysozyme; experiment: Protein labelling, results of FIGS. 1a to 1d taken together; type: binding
Procedure: as §1, §2
Y axis of FIGS. 1a through 1d represents fluorescence intensity, indicating photocrosslinking degree of the compound and protein. […]

T1 sequence (P02768 25-609): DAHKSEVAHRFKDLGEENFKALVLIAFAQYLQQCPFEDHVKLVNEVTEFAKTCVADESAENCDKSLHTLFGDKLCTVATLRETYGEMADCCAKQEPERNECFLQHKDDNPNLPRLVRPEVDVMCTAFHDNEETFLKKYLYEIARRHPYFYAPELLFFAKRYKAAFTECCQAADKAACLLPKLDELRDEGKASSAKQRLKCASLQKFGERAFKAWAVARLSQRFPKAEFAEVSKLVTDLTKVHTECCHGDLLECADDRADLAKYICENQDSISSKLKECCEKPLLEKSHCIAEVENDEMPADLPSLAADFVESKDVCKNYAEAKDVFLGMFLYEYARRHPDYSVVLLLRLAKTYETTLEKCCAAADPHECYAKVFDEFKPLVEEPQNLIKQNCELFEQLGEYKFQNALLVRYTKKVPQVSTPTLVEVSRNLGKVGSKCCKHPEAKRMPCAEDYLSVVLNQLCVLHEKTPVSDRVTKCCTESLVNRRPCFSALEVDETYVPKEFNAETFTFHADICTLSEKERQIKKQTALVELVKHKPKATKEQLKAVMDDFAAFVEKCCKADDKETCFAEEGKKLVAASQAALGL
T2 sequence (P02769 25-607): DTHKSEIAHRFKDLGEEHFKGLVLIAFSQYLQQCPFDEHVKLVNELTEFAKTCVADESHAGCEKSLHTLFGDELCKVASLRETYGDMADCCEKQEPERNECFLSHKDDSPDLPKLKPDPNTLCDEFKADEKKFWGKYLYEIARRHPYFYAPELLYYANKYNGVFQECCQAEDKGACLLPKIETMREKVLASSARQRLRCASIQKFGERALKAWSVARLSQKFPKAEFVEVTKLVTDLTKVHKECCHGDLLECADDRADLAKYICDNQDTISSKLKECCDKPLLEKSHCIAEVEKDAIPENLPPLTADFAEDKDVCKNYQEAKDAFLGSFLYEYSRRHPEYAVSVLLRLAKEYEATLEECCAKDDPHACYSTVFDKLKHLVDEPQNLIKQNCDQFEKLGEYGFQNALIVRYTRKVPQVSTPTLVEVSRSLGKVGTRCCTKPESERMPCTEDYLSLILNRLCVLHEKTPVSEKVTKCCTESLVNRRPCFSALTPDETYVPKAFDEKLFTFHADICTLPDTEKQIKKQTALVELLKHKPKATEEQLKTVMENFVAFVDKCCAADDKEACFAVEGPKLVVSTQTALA
T3 sequence (P00698 19-147): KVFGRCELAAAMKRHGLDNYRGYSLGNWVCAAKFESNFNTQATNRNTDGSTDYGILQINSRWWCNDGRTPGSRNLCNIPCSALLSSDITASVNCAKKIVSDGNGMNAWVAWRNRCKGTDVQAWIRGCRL

Compound | Absorbance (maximum value) [1] [nm] | Fluorescence (maximum value) [1] [nm] | Labeling of HSA (fluorescence intensity, photocrosslinking degree) (HSA) | Labeling of peroxidase (fluorescence intensity, photocrosslinking degree) (peroxidase) | Labeling of BSA (fluorescence intensity, photocrosslinking degree) (BSA) | Labeling of lysozyme (fluorescence intensity, photocrosslinking degree) (lysozyme) | Photocrosslinking property, comparison among the compounds [2]
Nc1ccccc1-c1nc2ccccc2[nH]1 [ABI, 2-(2-Aminophenyl)-1H-benzimidazole] | 360 | 415 | significant labeling | significant labeling | – | – | –
Oc1ccccc1-c1nc2ccccc2[nH]1 [HBI, 2-(2-hydroxyphenyl)benzimidazole] | 320 | 463 | significant labeling | significant labeling | significant labeling | significant labeling | highest photocrosslinking property
Oc1ccccc1-c1nc2ccccc2o1 [HBO, 2-(2-hydroxyphenyl)benzoxazole] | 380 | 480 | – | – | significant labeling | – | –
Oc1ccccc1-c1nc2ccccc2s1 [HBT, 2-(2-hydroxyphenyl)benzothiazole] | 350 | 515 | – | – | – | – | –
CCN(CC)c1ccc2nc(-c3ccccc3O)[nH]c2c1 [HDBI, 2-(2-hydroxyphenyl)-5-(diethylamino)benzimidazole] | 360 | 448 | significant labeling | significant labeling | significant labeling | significant labeling | –
